Paper PMC7472185 (Viruses, 2020)
Like-named read-outs stand apart in the source and are kept apart here. One block for each compound: values may come before it.

Legend:
HBV RT = HBV RT (Hepatitis B virus genotype C subtype adr, UniProt P12933); test: T/P and substrate binding assay (cell-free), poly(rA)/oligo(dT) with DIG-dUTP; settings: for inhibition at 10 µM / inhibition at 100 µM: read-out: % Inhibition to HBV RT of cell-free assay; for Inhibitory effect on T/P and substrate binding activity of HBV RT: poly(rA)/oligo(dT)
[1] = Cytotoxicity, CellTiter-Glo, HB611 cells; assay type: cell-based, human; settings: human; HB611 cells, day 9
[2] = Cytotoxicity, CellTiter-Glo, NTCP/G2 cells; assay type: cell-based; settings: human, NTCP-expressing HepG2 (NTCP/G2) cells, day 9
HBV [3] = test: microbe, parasite or virus in culture; assay type: cell-based, Hepatitis B virus; settings: HB611 cells, read-out: IC50 for extracellular HBV production
HBeAg [4] = test: HBeAg ELISA of supernatant, HBV infection system NTCP/G2; assay type: cell-based, Hepatitis B virus; settings: NTCP/G2, day 9
HBV cccDNA = test: cccDNA by qPCR (Hirt DNA), NTCP/G2 infection system; assay type: cell-based, Hepatitis B virus; settings: NTCP/G2 cells
HBeAg [5] = test: HBeAg ELISA of supernatant, HB611 cells; assay type: cell-based, Hepatitis B virus; settings: suramin, KB-R7943, compound 3 up to 50, 20, and 25 µM, respectively
HBV [6] = test: Intracellular core-associated HBV DNA by qPCR, HB611 cells; assay type: cell-based, Hepatitis B virus
HBsAg = HBsAg ELISA of supernatant, HB611 cells; assay type: cell-based, Hepatitis B virus; settings: suramin, KB-R7943, compound 3 up to 50, 20, and 25 µM, respectively
HBV [7] = test: Intracellular core-associated HBV DNA by qPCR, NTCP/G2 infection system; assay type: cell-based, Hepatitis B virus
HB611 cells = test: Cytotoxicity, CellTiter-Glo, HB611 cells; assay type: cell-based, human
[8] = test system: NTCP-expressing HepG2 (NTCP/G2) cells; test: Cytotoxicity, CellTiter-Glo, NTCP/G2 cells; assay type: cell-based; settings: day 9

Sequence of HBV RT (P12933 347-690): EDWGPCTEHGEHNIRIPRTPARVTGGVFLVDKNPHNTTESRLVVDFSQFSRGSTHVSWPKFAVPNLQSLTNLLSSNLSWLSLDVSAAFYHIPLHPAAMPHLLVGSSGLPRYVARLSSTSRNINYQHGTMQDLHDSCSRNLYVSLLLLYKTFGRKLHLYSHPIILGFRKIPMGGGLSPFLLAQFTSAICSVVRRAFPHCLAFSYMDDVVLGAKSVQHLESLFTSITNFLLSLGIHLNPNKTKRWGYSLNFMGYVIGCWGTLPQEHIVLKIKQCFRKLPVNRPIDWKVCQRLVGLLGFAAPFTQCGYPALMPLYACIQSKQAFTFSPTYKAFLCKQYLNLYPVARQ

SMILES: Nc1c(S(=O)(=O)O)cc(Nc2ccc(Nc3nc(Cl)nc(Nc4cccc(S(=O)(=O)O)c4)n3)c(S(=O)(=O)O)c2)c2c1C(=O)c1ccccc1C2=O [Reactive blue 2]
inhibition at 10 µM (HBV RT; 10 µM compound): 53%
inhibition at 100 µM (HBV RT; 100 µM compound): 100%

SMILES: Cc1ccc(C(=O)Nc2ccc(S(=O)(=O)O)c3cc(S(=O)(=O)O)cc(S(=O)(=O)O)c23)cc1NC(=O)c1cccc(NC(=O)Nc2cccc(C(=O)Nc3cc(C(=O)Nc4ccc(S(=O)(=O)O)c5cc(S(=O)(=O)O)cc(S(=O)(=O)O)c45)ccc3C)c2)c1 [Suramin]
CC50 at 9 days [1]: 168 µM
CC50 at 9 days [2]: > 200 µM
IC50 (HBV [3]; Hepatitis B virus): 16.8 µM
HBeAg expression in the culture supernatant (HBeAg [4]): reduced
Inhibitory effect on T/P and substrate binding activity of HBV RT (HBV RT; 10 µM compound): showed the higher inhibitory effects
inhibition at 10 µM (HBV RT; 10 µM compound): 69%
inhibition at 100 µM (HBV RT; 100 µM compound): 97%
cccDNA levels (HBV cccDNA): reduced
HBeAg secretion (HBeAg [5]): no changes
IC50 (HBV [6]; Hepatitis B virus, HB611, read-out: IC50 for core-associated DNA): 26.4 µM
HBsAg secretion (HBsAg): no changes
IC50 (HBV [7]; Hepatitis B virus, 216 h, read-out: putative IC50, core-associated HBV DNA): 0.27 µM

SMILES: CC(=O)c1c(O)c(C)c(O)c(Cc2c(O)c3c(c(C(=O)/C=C/c4ccccc4)c2O)OC(C)(C)C=C3)c1O [Rottlerin]
inhibition at 10 µM (HBV RT): 35%
inhibition at 100 µM (HBV RT): 98%

SMILES: N=C(N)SCCc1ccc(OCc2ccc([N+](=O)[O-])cc2)cc1 [KB-R7943]
CC50 (HB611 cells): 41.9 µM
CC50 [8]: 37.4 µM
IC50 (HBV [3]): 3.7 µM
HBeAg expression in the culture supernatant (HBeAg [4]): did not change
Inhibitory effect on T/P and substrate binding activity of HBV RT (HBV RT; 10 µM compound): showed the higher inhibitory effects
HBeAg secretion (HBeAg [5]): no changes
Core-associated DNA (HBV [6]; HB611 cells): modest decrease
HBsAg secretion (HBsAg): no changes
putative IC50, core-associated HBV DNA (HBV [7]; NTCP/G2, day 9): 7.37 µM

SMILES: Cc1cc2c(C(C)C)c(O)c(O)c(C=O)c2c(O)c1-c1c(C)cc2c(C(C)C)c(O)c(O)c(C=O)c2c1O [Gossypol]
Inhibitory effect on T/P and substrate binding activity of HBV RT (HBV RT; 10 µM compound): showed the higher inhibitory effects
inhibition at 10 µM (HBV RT; 10 µM compound): 92%
inhibition at 100 µM (HBV RT; 100 µM compound): 97%

% Inhibition to HBV RT of cell-free assay (HBV RT; 10 µM compound): 26%
% Inhibition to HBV RT of cell-free assay (HBV RT; 100 µM compound): 96%
SMILES: O=C(Nc1cccc(C(=O)Nc2ccc(S(=O)(=O)O)c3cc(S(=O)(=O)O)cc(S(=O)(=O)O)c23)c1)Nc1cccc(C(=O)Nc2ccc(S(=O)(=O)O)c3cc(S(=O)(=O)O)cc(S(=O)(=O)O)c23)c1 [NF023]

Inhibitory effect on T/P and substrate binding activity of HBV RT (HBV RT; 10 µM compound): showed the higher inhibitory effects
SMILES: C=CC1=C(C)c2cc3[nH]c(cc4nc(cc5[nH]c(cc1n2)c(C)c5CCC(=O)O)C(CCC(=O)O)=C4C)c(C)c3C=C [protoporphyrin IX disodium]
